Experimental data as given in patent publication US9822127B2, “GAK modulators as antivirals” (Katholieke Universiteit Leuven, priority 2014, dated 2017).
In brackets after ≈: the same amount, converted by molar mass. Like-named read-outs stand apart in the source and are kept apart here.

Tests used:
[1] = target: T1, GAK (Homo sapiens, UniProt O14976); assay: GAK binding assay (T7 phage kinase competition binding); details: for remaining binding at 10 µM: read-out: % Ctrl; for % Ctrl: 10 µM
T1 construct: made in house; host or cells: T7 phage grown in E. coli host derived from BL21
T1 sequence (O14976 1-1311): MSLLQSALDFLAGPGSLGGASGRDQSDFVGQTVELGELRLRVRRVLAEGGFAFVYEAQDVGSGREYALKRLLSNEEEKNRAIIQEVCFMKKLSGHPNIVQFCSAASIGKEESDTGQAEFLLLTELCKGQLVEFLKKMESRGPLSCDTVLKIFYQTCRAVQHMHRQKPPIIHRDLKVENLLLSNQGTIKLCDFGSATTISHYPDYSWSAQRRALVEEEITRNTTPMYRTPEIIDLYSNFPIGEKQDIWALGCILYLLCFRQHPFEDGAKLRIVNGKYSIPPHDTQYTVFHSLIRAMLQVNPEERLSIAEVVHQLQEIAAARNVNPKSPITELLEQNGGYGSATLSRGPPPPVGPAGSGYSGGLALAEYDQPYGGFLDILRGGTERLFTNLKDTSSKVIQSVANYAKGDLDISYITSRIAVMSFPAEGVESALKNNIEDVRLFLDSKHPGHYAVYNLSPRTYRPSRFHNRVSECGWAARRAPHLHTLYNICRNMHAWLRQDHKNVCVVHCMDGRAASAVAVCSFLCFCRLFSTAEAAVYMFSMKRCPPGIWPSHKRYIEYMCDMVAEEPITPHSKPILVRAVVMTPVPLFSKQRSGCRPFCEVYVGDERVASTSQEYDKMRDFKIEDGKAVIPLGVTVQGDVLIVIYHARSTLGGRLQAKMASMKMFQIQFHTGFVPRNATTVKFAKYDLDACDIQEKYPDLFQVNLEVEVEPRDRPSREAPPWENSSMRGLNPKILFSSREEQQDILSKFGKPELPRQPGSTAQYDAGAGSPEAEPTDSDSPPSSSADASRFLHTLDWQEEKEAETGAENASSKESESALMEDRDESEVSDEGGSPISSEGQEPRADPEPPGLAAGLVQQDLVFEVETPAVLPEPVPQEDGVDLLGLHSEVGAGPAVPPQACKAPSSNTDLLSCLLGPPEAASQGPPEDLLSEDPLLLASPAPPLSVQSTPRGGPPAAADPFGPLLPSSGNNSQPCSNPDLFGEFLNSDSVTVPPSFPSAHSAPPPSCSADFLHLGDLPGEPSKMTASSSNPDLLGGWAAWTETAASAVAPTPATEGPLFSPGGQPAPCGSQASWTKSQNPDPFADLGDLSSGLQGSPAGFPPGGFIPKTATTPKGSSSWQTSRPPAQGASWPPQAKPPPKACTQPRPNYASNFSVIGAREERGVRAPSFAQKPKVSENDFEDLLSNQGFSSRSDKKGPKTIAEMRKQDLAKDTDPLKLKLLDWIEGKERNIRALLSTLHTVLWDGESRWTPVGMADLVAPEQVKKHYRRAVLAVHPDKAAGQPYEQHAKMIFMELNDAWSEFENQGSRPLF

[2] = system: SARS Coronavirus (Virus strain: Urbani); assay: microbe, parasite or virus in culture; format: cell-based
[3] = system: Vero76; details: African green monkey
[4] = in vitro; details: African green monkey
[5] = Cytotoxicity in CPE assay, Vero76; details: African green monkey
[6] = single concentration of 10 μM, lower numbers indicate stronger hits
[7] = Severe acute respiratory syndrome coronavirus, Vero 76

For `COc1snc2cc(-c3ccc(F)cc3)cnc12` [Example 34, 3-methoxy-6-(4-fluoro-phenyl)-isothiazolo[4,3-b]pyridine], the remaining binding at 10 µM [1, 6] was 37%.
`Nc1snc2cc(-c3ccc(F)cc3)cnc12` [Example 7, 3-amino-6-(4-fluorophenyl)-isothiazolo[4,3-b]pyridine] gave a remaining binding at 10 µM [1, 6] of 55%.
For `c1csc(-c2cnc3c(N4CCOCC4)snc3c2)c1` [Example 43, 4-(6-(Thiophen-2-yl)isothiazolo[4,3-b]pyridin-3-yl)morpholine], the Kd [1] was 47 nM and the remaining binding at 10 µM [1, 6] was 0.05%.
With `COc1snc2cc(-c3cccnc3)cnc12` [Example 35] the “% Ctrl” value [1] was 93%.
For `c1cc(-c2cnc3c(N4CCOCC4)snc3c2)cs1` [Example 27], the remaining binding at 10 µM [1, 6] was 0.1%.
For `CN1CCN(c2snc3cc(-c4ccccc4)cnc23)CC1` [Example 38], the remaining binding at 10 µM [1, 6] was 76%.
In the case of `COc1ccc(-c2cnc3c(OC)snc3c2)cc1OC` [Example 36], the “% Ctrl” value [1] is reported as 19%.
With `COc1ccc(-c2cnc3c(N4CCC(O)CC4)snc3c2)cc1OC` [Example 66, 1-(6-(3,4-dimethoxyphenyl)-isothiazolo[4,3-b]pyridin-3-yl)piperidin-4-ol] the EC50 [2] was 38 µg/mL (≈ 102 µM), the EC50 [2, 7] was 50 µg/mL (≈ 135 µM) and the CC50 [3] was greater than 100 µg/mL. For the same molecule, the CC50 [4] was greater than 100 µg/mL.
Molecule `OCCNc1snc2cc(-c3ccsc3)cnc12` [Example 30, 3-ethanolamino-6-(3-thienyl)-isothiazolo[4,3-b]pyridine] has a Kd [1] of 300 nM and a remaining binding at 10 µM [1, 6] of 0.3%.
In the case of “6-bromo-6-ethanolamino-isothiazolo[4,3-b]pyridine [Example 12]”, the “% Ctrl” value [1] is reported as 62%.
`Nc1snc2cc(-c3cccnc3)cnc12` [Example 5, 3-amino-6-(3-pyridyl)-isothiazolo[4,3-b]pyridine] gave a remaining binding at 10 µM [1, 6] of 80%.
With `COc1ccc(-c2cnc3c(N)snc3c2)cc1OC` [Example 6, 3-amino-6-(3,4-dimethoxyphenyl)-isothiazolo[4,3-b]pyridine] the remaining binding at 10 µM [1, 6] was 70%.
For `COc1cc(-c2cnc3c(N4CCOCC4)snc3c2)ccc1OC(C)=O` [Example 47, 2-Methoxy-4-(3-morpholinoisothiazolo[4,3-b]pyridin-6-yl)phenyl acetate], the remaining binding at 10 µM [1, 6] was 0%.
Work on `COc1ccc(-c2cnc3c(N4CCOCC4)snc3c2)c(OC)c1` [Example 45, 4-(6-(2,4-Dimethoxyphenyl)isothiazolo[4,3-b]pyridin-3-yl)morpholine] yielded a remaining binding at 10 µM [1, 6] of 6.3%.
With `COc1ccc(-c2cnc3c(N4CCSCC4)snc3c2)cc1OC` [Example 58, 6-(3,4-dimethoxyphenyl)-3-thiomorpholinoisothiazolo[4,3-b]pyridine] the Kd [1] was 230 nM and the remaining binding at 10 µM [1, 6] was 0.8%.
`OCCNc1snc2cc(-c3ccc(F)cc3)cnc12` [Example 32, 3-ethanolamino-6-(3-(4-fluorophenyl))-isothiazolo[4,3-b]pyridine] showed a remaining binding at 10 µM [1, 6] of 2.2%.
With `c1ccc(-c2cnc3c(N4CCOCC4)snc3c2)cc1` [Example 23, 3-morpholino-6-phenyl-isothiazolo[4,3-b]pyridine] the Kd [1] was 500 nM, the remaining binding at 10 µM [1, 6] was 0.8% and the EC50 [2] was 4.4 µg/mL (≈ 14.8 µM). The EC50 [2, 7] was 4.5 µg/mL (≈ 15.1 µM), the CC50 ([5]; CC50, Neutral Red) was 50 µg/mL (≈ 168 µM) and the CC50 ([5]; CC50, Visual) was 34 µg/mL (≈ 114 µM).
Work on `Nc1snc2cc(-c3ccsc3)cnc12` [Example 8, 3-amino-6-(3-thienyl)-isothiazolo[4,3-b]pyridine] yielded a remaining binding at 10 µM [1, 6] of 61%.
In the case of `COc1snc2cc(-c3ccsc3)cnc12` [Example 37], the “% Ctrl” value [1] is reported as 22%.
For `c1cncc(-c2cnc3c(N4CCOCC4)snc3c2)c1` [Example 25, 3-morpholino-6-(3-pyridyl)-isothiazolo[4,3-b]pyridine], the remaining binding at 10 µM [1, 6] was 25%.
Work on `COc1cc(-c2cnc3c(N4CCOCC4)snc3c2)ccc1O` [Example 64, 2-methoxy-4-(3-morpholinoisothiazolo[4,3-b]pyridin-6-yl)phenol] yielded a remaining binding at 10 µM [1, 6] of 0%, a CC50 ([5]; CC50, Neutral Red) of 0.97 µg/mL (≈ 2.82 µM) and a CC50 ([5]; CC50, Visual) of 0.42 µg/mL (≈ 1.22 µM).
For `COc1ccc(-c2cnc3c(N4CCCC4)snc3c2)cc1OC` [Example 73, 6-(3,4-dimethoxyphenyl)-3-(pyrrolidin-1-yl)isothiazolo[4,3-b]pyridine], the Kd [1] was 100 nM and the remaining binding at 10 µM [1, 6] was 0%.
Molecule `c1cc(-c2cnc3c(N4CCOCC4)snc3c2)co1` [Example 52, 4-(6-(Furan-3-yl)isothiazolo[4,3-b]pyridin-3-yl)morpholine] has a remaining binding at 10 µM [1, 6] of 0.15%, an EC50 [2] of 49 µg/mL (≈ 171 µM) and an EC50 [2, 7] of 44 µg/mL (≈ 153 µM). It also gave a CC50 [3] greater than 100 µg/mL and a CC50 [4] greater than 100 µg/mL.
In the case of `OCCNc1snc2cc(-c3ccccc3)cnc12` [Example 31, 3-ethanolamino-6-phenyl-isothiazolo[4,3-b]pyridine], the remaining binding at 10 µM [1, 6] is reported as 18%.
With `Nc1snc2cc(-c3ccccc3)cnc12` [Example 4, 3-amino-6-phenyl-isothiazolo[4,3-b]-pyridine] the remaining binding at 10 µM [1, 6] was 68%.
`COc1cc(OC)cc(-c2cnc3c(N4CCOCC4)snc3c2)c1` [Example 48, 4-(6-(3,5-Dimethoxyphenyl)isothiazolo[4,3-b]pyridin-3-yl)morpholine] showed a remaining binding at 10 µM [1, 6] of 0.2%.
For `COc1ccc(-c2cnc3c(N4CCN(C)CC4)snc3c2)cc1OC` [Example 40, 3-(N-Me-piperazinyl)-6-(3,4-dimethoxyphenyl)-isothiazolo[4,3-b]pyridine], the remaining binding at 10 µM [1, 6] was 19%.
With `COc1ccc(OC)c(-c2cnc3c(N4CCOCC4)snc3c2)c1` [Example 44, 4-(6-(2,5-Dimethoxyphenyl)isothiazolo[4,3-b]pyridin-3-yl)morpholine] the remaining binding at 10 µM [1, 6] was 0.7%.
Molecule `COc1ccc(-c2cnc3c(NCCc4ccccc4)snc3c2)cc1OC` [Example 74, 6-(3,4-dimethoxyphenyl)-N-phenethylisothiazolo[4,3-b]pyridin-3-amine] has a remaining binding at 10 µM [1, 6] of 81%, an EC50 [2] of 5.8 µg/mL (≈ 14.8 µM) and an EC50 [2, 7] of 4.5 µg/mL (≈ 11.5 µM). It also gave a CC50 [3] greater than 100 µg/mL and a CC50 [4] greater than 100 µg/mL.
`c1cc2c(cc1-c1cnc3c(N4CCOCC4)snc3c1)OCO2` [Example 51, 4-(6-(Benzo[d][1,3]dioxol-5-yl)isothiazolo[4,3-b]pyridin-3-yl)morpholine] gave a remaining binding at 10 µM [1, 6] of 51%.
Work on `CN1CCN(c2snc3cc(-c4ccsc4)cnc23)CC1` [Example 41, 3-(N-Me-piperazinyl)-6-(3-thienyl)-isothiazolo[4,3-b]pyridine] yielded a remaining binding at 10 µM [1, 6] of 7.4%.
In the case of `OCCNc1snc2cc(-c3cccnc3)cnc12` [Example 28], the remaining binding at 10 µM [1, 6] is reported as 45%.
`Fc1ccc(-c2cnc3c(N4CCOCC4)snc3c2)cc1` [Example 24] gave a remaining binding at 10 µM [1, 6] of 11%.
For `COc1ccc(-c2cnc3c(NCC4CC4)snc3c2)cc1OC` [Example 76, N-(cyclopropylmethyl)-6-(3,4-dimethoxyphenyl)isothiazolo[4,3-b]pyridin-3-amine], the Kd [1] was 27 nM, the remaining binding at 10 µM [1, 6] was 0% and the EC50 [2] was 0.54 µg/mL (≈ 1.58 µM). For the same molecule, the EC50 [2, 7] was 0.86 µg/mL (≈ 2.52 µM), the CC50 ([5]; CC50, Neutral Red) was 33 µg/mL (≈ 96.7 µM) and the CC50 ([5]; CC50, Visual) was 18 µg/mL (≈ 52.7 µM).
For `CN1CCN(c2snc3cc(-c4cccnc4)cnc23)CC1` [Example 39, 3-(N-Me-piperazinyl)-6-(3-pyridyl)-isothiazolo[4,3-b]pyridine], the remaining binding at 10 µM [1, 6] was 88%.
With `CN1CCN(c2snc3cc(-c4ccc(F)cc4)cnc23)CC1` [Example 42, 3-(N-Me-piperazinyl)-6-(4-fluorophenyl)-isothiazolo[4,3-b]pyridine] the remaining binding at 10 µM [1, 6] was 72%.
With `COc1ccc(-c2cnc3c(N(CCO)CCO)snc3c2)cc1OC` [Example 70, 2,2′-(6-(3,4-dimethoxyphenyl)isothiazolo[4,3-b]pyridin-3-ylazanediyl)diethanol] the Kd [1] was 320 nM and the remaining binding at 10 µM [1, 6] was 4%.
For `COc1ccc(-c2cnc3c(N4CCOCC4)snc3c2)cc1OC` [Example 26], the remaining binding at 10 µM [1, 6] was 0%.
With `COc1snc2cc(Br)cnc12` [Example 14, 3-methoxy-6-bromo-isothiazolo[4,3-b]pyridine] the “% Ctrl” value [1, 6] was 87%.
